From publication PMC4805251, “Novel Antimicrobial Peptides EeCentrocins 1, 2 and EeStrongylocin 2 from the Edible Sea Urchin Echinus esculentus Have 6-Br-Trp Post-Translational Modifications” (PLoS ONE, 2016)
Where two headings read alike, the source gives them in different places. Ends that are not written are not given here.

Columns and labels:
Assay type in all cases: cell-based
[1] = tested on: Candida albicans (ATCC 10231)
Protocol: (§1) The synthetic peptides (see section 2.11) were also screened for antifungal activity against Candida albicans (ATCC 10231), Saccharomyces cerevisiae, Rhodotorula sp., Aureobasidium pullulans and Cladosporium sp. The antifungal assay was performed as described previously. Briefly, fungal spores were dissolved in potato dextrose broth (Difco, Lawrence, KS, USA) to a concentration of 4 × 10^5 spores/ml. The spores (50 μl) were inoculated on 96-well Nunclon^TM microtiter plates containing the synthetic peptides (50 μl) dissolved in MQ-H2O. […] MIC was defined as the lowest concentration of peptide giving no visible fungal growth. The negative (growth) control contained medium and fungal solution.
(§2) ACN-phases and SPE eluates were tested with two-fold serial dilutions ranging from 5.0 to 0.005 mg/ml (5.0, 2.5, 1.25, 0.63, 0.31, 0.16, 0.08, 0.04, 0.02, 0.01, 0.005 mg/ml) whereas HPLC-fractions were tested undiluted for antibacterial activity. Pure, native peptides and synthetic peptides (described in section 2.11) were tested for antimicrobial activity in concentrations ranging from 100 to 0.1 μM in two-fold serial dilutions (100, 50, 25, 12.5, 6.25, 3.13, 1.56, 0.78, 0.39, 0.20, 0.10 μM). Antimicrobial assays involving natural peptides (i.e. fractionated natural material) were run only once due to limited quantities, whereas all other assays were run in triplicates.

[2] = tested on: Saccharomyces cerevisiae
Protocol: as §1, §2

[3] = tested on: Cladosporium sp.
Protocol: as §1, §2

[4] = tested on: P. aeruginosa #2, PA 01 (ATCC 15692, DSM 19880)
Description: (§3) Organic phase extract, SPE eluates and HPLC-fractions were screened for antibacterial activity against two strains of Gram-positive and two strains of Gram-negative bacteria; Corynebacterium glutamicum (ATCC 13032), Staphylococcus aureus (ATCC 9144), Pseudomonas aeruginosa #1 (ATCC 27853) and Escherichia coli #1 (ATCC 25922). For extended antimicrobial bioactivity screening, the following bacterial strains were used, three strains of Gram-positive bacteria; S. epidermidis #1 (5179-R1) kindly provided by Holger Rohde, S. epidermidis #2, RP62A (ATCC 35984) and Bacillus subtilis (ATCC 23857) in addition to the Gram-negative P. aeruginosa #2, PA 01 (ATCC 15692, DSM 19880) and E. coli #2, NR 698 (MC4100/ptD4213).
(§4) Cultures stored at -80°C were smeared onto agar plates and cultured for 24 h at 35°C. One colony of each bacterial strain was transferred to 5 ml liquid Müller-Hinton (MH, Difco, Lawrence, KS, USA) medium in a glass tube and left shaking at room temperature overnight at 600 rpm. The cultures of actively growing bacteria (20 μl) were further inoculated in 5 ml MH medium and left shaking for 2 h at room temperature. The antibacterial assays were performed as previously described by. Briefly, the bacterial cultures were diluted with medium to 1.3–1.5 × 10^4 bacteria/ml final concentrations and an aliquot of 50 μl was added to each well in 96-well Nunclon^TM microtiter plates (Nagle Nunc Int., Denmark) preloaded with 50 μl test sample solutions, i.e. extracts, eluates or peptides.
(§5) The test plates were incubated for 24 h at 35°C with optical density (OD595) recorded every hour using an Envision 2103 multilabel reader, controlled by the Wallac Envision manager (PerkinElmer, CT, USA). Antibacterial activity was defined as a sample showing >90% inhibition (as measured by optical density) compared to the negative (growth) controls, consisting of bacteria and water. Oxytetracycline (20 μM) served as a positive (inhibition) control. The minimum inhibitory concentration (MIC) was defined as the lowest concentration of a sample displaying >90% inhibition.
as §2

[5] = tested on: Pseudomonas aeruginosa #1 (ATCC 27853)
Description: as §3, §4, §5, §2

[6] = tested on: S. epidermidis #2, RP62A (ATCC 35984)
Description: as §3, §4, §5, §2

[7] = tested on: Bacillus subtilis (ATCC 23857)
Description: as §3, §4, §5, §2

[8] = tested on: Staphylococcus aureus (ATCC 9144)
Description: as §3, §4, §5, §2

[9] = tested on: Escherichia coli #1 (ATCC 25922)
Description: as §3, §4, §5, §2

[10] = tested on: S. epidermidis #1 (5179-R1)
Description: as §3, §4, §5, §2

[11] = tested on: E. coli #2, NR 698 (MC4100/ptD4213)
Description: as §3, §4, §5, §2

[12] = tested on: Corynebacterium glutamicum (ATCC 13032)
Description: as §3, §4, §5, §2

[13] = potato dextrose broth, 24 h at room temperature, visual, no visible fungal growth, value of Table 2, triplicates
[14] = MH medium, 24 h at 35°C, OD595, >90% inhibition, value of Table 2, triplicates
[15] = MH medium, 24 h at 35°C, OD595, >90% inhibition, value of Table 2, native peptides run once, synthetic in triplicates
[16] = MH medium, 24 h at 35°C, OD595, lowest concentration with >90% inhibition, value of Table 2, native peptides run once, synthetic in triplicates

In the case of “WGHKLRSSWNKVKHAVKKGAGYASGACRVLGH [EeCentrocin 2 HC]”, the “MIC raw data C. albicans” value ([1]; parallel 1 of three) is reported as 50 µM, the “MIC raw data C. albicans” value ([1]; parallel 2 of three) is reported as 50 µM and the “MIC raw data C. albicans” value ([1]; parallel 3 of three) is reported as 25 µM. For the same sequence, the “MIC C. albicans” value [1, 13] was 50 µM, the “MIC raw data S. cerevisiae” value ([2]; parallel 1 of three) was 12.5 µM and the “MIC raw data S. cerevisiae” value ([2]; parallel 2 of three) was 12.5 µM. For the same sequence, the “MIC raw data S. cerevisiae” value ([2]; parallel 3 of three) was 12.5 µM, the “MIC S. cerevisiae” value [2, 13] was 12.5 µM and the “MIC raw data Cladosporium sp.” value ([3]; parallel 1 of three) was 12.5 µM. The “MIC raw data Cladosporium sp.” value ([3]; parallel 2 of three) was 12.5 µM, the “MIC raw data Cladosporium sp.” value ([3]; parallel 3 of three) was 12.5 µM and the “MIC Cladosporium sp.” value [3, 13] was 12.5 µM. The “MIC P. aeruginosa #2” value [4, 14] was 6.25 µM, the “MIC raw data P. aeruginosa #2” value ([4]; parallel 1 of three) was 6.25 µM and the “MIC raw data P. aeruginosa #2” value ([4]; parallel 2 of three) was 6.25 µM. For the same sequence, the “MIC raw data P. aeruginosa #2” value ([4]; parallel 3 of three) was 3.13 µM, the “MIC P. aeruginosa #1” value [5, 15] was 0.78 µM and the “MIC raw data P. aeruginosa #1” value ([5]; parallel 1 of three) was 0.78 µM. The “MIC raw data P. aeruginosa #1” value ([5]; parallel 2 of three) was 0.78 µM, the “MIC raw data P. aeruginosa #1” value ([5]; parallel 3 of three) was 0.78 µM and the “MIC S. epidermidis #2” value [6, 14] was 3.13 µM. For the same sequence, the “MIC raw data S. epidermidis #2” value ([6]; parallel 1 of three) was 3.13 µM, the “MIC raw data S. epidermidis #2” value ([6]; parallel 2 of three) was 3.13 µM and the “MIC raw data S. epidermidis #2” value ([6]; parallel 3 of three) was 3.13 µM. The “MIC B. subtilis” value ([7]; MH medium, 24 h at 35°C, OD595, lowest concentration with >90% inhibition, value of Table 2, synthetic peptides in triplicates) was 6.25 µM, the “MIC raw data B. subtilis” value ([7]; parallel 1 of three) was 6.25 µM and the “MIC raw data B. subtilis” value ([7]; parallel 2 of three) was 3.13 µM. The “MIC raw data B. subtilis” value ([7]; parallel 3 of three) was 3.13 µM, the “MIC S. aureus” value [8, 16] was 6.25 µM and the “MIC raw data S. aureus” value ([8]; parallel 1 of three) was 6.25 µM. For the same sequence, the “MIC raw data S. aureus” value ([8]; parallel 2 of three) was 6.25 µM, the “MIC raw data S. aureus” value ([8]; parallel 3 of three) was 6.25 µM and the “MIC E. coli #1” value [9, 15] was 1.56 µM. For the same sequence, the “MIC raw data E. coli #1” value ([9]; parallel 1 of three) was 1.56 µM, the “MIC raw data E. coli #1” value ([9]; parallel 2 of three) was 0.78 µM and the “MIC raw data E. coli #1” value ([9]; parallel 3 of three) was 0.78 µM. The “MIC S. epidermidis #1” value [10, 14] was 3.13 µM, the “MIC raw data S. epidermidis #1” value ([10]; parallel 1 of three) was 3.13 µM and the “MIC raw data S. epidermidis #1” value ([10]; parallel 2 of three) was 3.13 µM. For the same sequence, the “MIC raw data S. epidermidis #1” value ([10]; parallel 3 of three) was 1.56 µM, the “MIC E. coli #2” value [11, 14] was 6.25 µM and the “MIC raw data E. coli #2” value ([11]; parallel 1 of three) was 6.25 µM. For the same sequence, the “MIC raw data E. coli #2” value ([11]; parallel 2 of three) was 3.13 µM, the “MIC raw data E. coli #2” value ([11]; parallel 3 of three) was 3.13 µM and the “MIC C. glutamicum” value [12, 16] was 0.78 µM. The “MIC raw data C. glutamicum” value ([12]; parallel 1 of three) was 0.78 µM, the “MIC raw data C. glutamicum” value ([12]; parallel 2 of three) was 0.78 µM and the “MIC raw data C. glutamicum” value ([12]; parallel 3 of three) was 0.78 µM.
